Where “and” joins values, the source holds several entries; their conditions need not be identical. Equal entries are not always repeated.
What was measured:
Assay type in all cases: toxicity, cell-based
[1] = system: U2OS; test: Incucyte cell viability with U2OS; details: human, 10 µM, compound concentration 10 uM
[2] = system: HEK-293T; test: Incucyte cell viability with HEK293T; details: human, 10 µM, compound concentration 10 uM
[3] = system: Fibroblast; test: Incucyte cell viability with human fibroblast; details: 10 µM, compound concentration 10 uM
Note: unitless GR value; below 1 slowed growth and below 0 cell loss.

SMILES	Growth Rate ([1]; 6 h, replicate number 1)	Growth Rate ([2]; 6 h, replicate number 1)	Growth Rate ([2]; 6 h, replicate number 2)	Growth Rate ([2]; 12 h, replicate number 1)	Growth Rate ([2]; 12 h, replicate number 2)	Growth Rate ([2]; 18 h, replicate number 1)	Growth Rate ([2]; 18 h, replicate number 2)	Growth Rate ([2]; 24 h, replicate number 1)	Growth Rate ([2]; 24 h, replicate number 2)	Growth Rate ([3]; 6 h, replicate number 1)	Growth Rate ([3]; 12 h, replicate number 2)	Growth Rate ([1]; 12 h, replicate number 1)	Growth Rate ([1]; 18 h, replicate number 1)	Growth Rate ([1]; 24 h, replicate number 1)	Growth Rate ([2]; 0 h, replicate number 2)	Growth Rate ([3]; 0 h, replicate number 2)	Growth Rate ([3]; 6 h, replicate number 2)	Growth Rate ([1]; 24 h, replicate number 2)	Growth Rate ([3]; 18 h, replicate number 2)	Growth Rate ([3]; 24 h, replicate number 2)	further results
CN1C(=O)Cc2ccc(-c3ccc(C[C@@H](C#N)NC(=O)[C@@H]4N[C@H]5CC[C@@H]4C5)c(F)c3)cc21	0.89	0.06	0.52	0.07	0.61	0.19	0.73	0.28	0.82	0.38	0.99	–	–	–	–	–	–	–	–	–	Growth Rate ([1]; 0 h, replicate number 1): 0.98; Growth Rate ([3]; 12 h, replicate number 1): 0.46; Growth Rate ([3]; 18 h, replicate number 1): 0.42; Growth Rate ([3]; 24 h, replicate number 1): 0.61
Cc1nc(-c2ccc(C(F)(F)F)cc2)sc1C(=O)NCc1ccc(OC(C)(C)C(=O)O)cc1 [GW590735]	0.91	–	0.83	–	0.93	–	0.92	–	0.72	0.76	–	0.91	0.93	0.97	0.73	0.77	0.99	–	–	–	Growth Rate ([1]; 0 h, replicate number 1): -0.11; Growth Rate ([2]; 0 h, replicate number 1): 0.96; Growth Rate ([3]; 12 h, replicate number 1): 0.82; Growth Rate ([3]; 18 h, replicate number 1): 0.71; Growth Rate ([3]; 24 h, replicate number 1): 0.83
O=C(O)CCCc1cc2cc(Cl)ccc2n1S(=O)(=O)c1ccc2ncsc2c1 [LANIFIBRANOR]	–	0.78	0.49	–	0.73	–	0.59	–	0.63	0.58	0.76	0.94	–	–	-0.8	0.65	0.28	–	–	–	Growth Rate ([2]; 0 h, replicate number 1): 0.87
C[C@@H]1C[C@H](N)C[C@H](c2ccncc2NC(=O)c2ccc(F)c(-c3c(F)cccc3F)n2)C1 [LGH-447]	-0.22	-0.02	0.11	0.2	0.54	0.27	0.54	0.36	0.57	–	0.9	0.59	0.82	0.98	–	0.09	0.93	0.96	0.58	0.44	Growth Rate ([3]; 12 h, replicate number 1): 0.96; Growth Rate ([3]; 18 h, replicate number 1): 0.87; Growth Rate ([3]; 24 h, replicate number 1): 0.67
COC[C@@H](CC(C)C)NC1=N/C(=C\c2ccc3ncsc3c2)C(=O)N1C	–	0.37	0.4	-0.18	0.3	0.35	0.69	0.68	0.6	-0.97	0.07	0.73	0.43	0.37	0.12	–	0.03	0.28	0.3	0.51	Growth Rate ([1]; 0 h, replicate number 1): 0.04; Growth Rate ([1]; 12 h, replicate number 2): 0.64; Growth Rate ([1]; 18 h, replicate number 2): 0.37; Growth Rate ([2]; 0 h, replicate number 1): 0.16; Growth Rate ([3]; 18 h, replicate number 1): 0.63
COc1cc(OC)cc(-c2cc3cnc(N)nc3nc2NC(=O)NC(C)(C)C)c1	0.92	0.92	–	0.8	–	0.71	0.36 and 0.62	0.65 and 0.98	0.38 and 0.68	-0.05	–	0.8	0.67 and 0.9	0.91	-0.38	0.79	0.11	–	0.45	0.45	Growth Rate ([1]; 0 h, replicate number 2): 0.36 and 0.2
CCN(C(=O)c1cc(F)ccc1Oc1cncnc1N1CC2(CCN(C[C@H]3CC[C@H](NS(=O)(=O)CC)CC3)CC2)C1)C(C)C [REVUMENIB]	0.62	–	0.24	–	0.53	–	0.48	–	0.38	0.15	–	0.8	0.77	0.76	0.43	0.3	0.81	0.67	0.88	0.93	Growth Rate ([1]; 0 h, replicate number 1): 0.19; Growth Rate ([1]; 0 h, replicate number 2): 0.45; Growth Rate ([1]; 6 h, replicate number 2): 0.45; Growth Rate ([1]; 12 h, replicate number 2): 0.79; Growth Rate ([1]; 18 h, replicate number 2): 0.76; Growth Rate ([2]; 0 h, replicate number 1): -0.33; Growth Rate ([3]; 12 h, replicate number 1): 0.94; Growth Rate ([3]; 18 h, replicate number 1): 0.79; Growth Rate ([3]; 24 h, replicate number 1): 0.88
O=C(CNC(=O)c1ccc(-c2ccccc2)cc1)NC1CCCc2ccccc21 (configuration not stated)	0.38	0.23	0.73	-0.08	0.41	0.26	0.38	0.39	0.46	–	0.26	0.67	0.43	0.55	-0.65	–	0.27	0.93	0.42	0.7	Growth Rate ([1]; 0 h, replicate number 1): 0.77; Growth Rate ([1]; 12 h, replicate number 2): 0.9
O=C(N[C@H]1CN2CCC1CC2)c1ccc(Cl)cc1 [PNU-282987]	–	–	0.88	–	0.94	–	–	–	1	-0.45	0.79	0.84	0.75	0.94	–	–	-0.01	0.86	0.85	0.81	Growth Rate ([1]; 0 h, replicate number 2): -0.61; Growth Rate ([1]; 6 h, replicate number 2): 0.78; Growth Rate ([1]; 18 h, replicate number 2): 0.8
Cc1c(NC(=O)c2ccc(C(C)(C)C)cc2)cccc1-c1cn(C)c(=O)c(Nc2ccc(C(=O)N3CCOCC3)cc2)n1	–	0.48	–	0.38	0.51	0.53	0.35	0.63	0.48	–	0.63	–	–	0.97	–	–	-0.1	–	0.72	–	–
Cn1nc(C(=O)NCc2ccc(C(=O)O)cc2)cc1-c1ccc2[nH]ccc2c1 [BI 4395]	0.66	–	0.57	–	0.63	–	0.85	–	0.56	–	–	–	–	–	0.58	-0.67	–	0.9	–	–	Growth Rate ([1]; 0 h, replicate number 2): 0.14; Growth Rate ([1]; 6 h, replicate number 2): 0.99; Growth Rate ([1]; 12 h, replicate number 2): 0.96; Growth Rate ([2]; 0 h, replicate number 1): -0.1

— ChEMBL document CHEMBL5303304, “EUbOPEN Chemogenomics Library - IncuCyte” (2023)
